For orientation: AC50 means the midpoint of the concentration-response curve, whichever way the signal moves. A low value points to greater potency.

Molecules are shown by their SMILES.

In PubChem BioAssay AID743267 (Broad Institute, 2014) one finds AC50 data, which are given here for 64 compounds.

The test system of this experiment is human bronchial epithelial cells, CFTR corrector, plate reader. In words: CFTR ΔF508 corrector activity in bronchial cells, dose response, human bronchial epithelial cells, plate reader, cherry-pick, two tests (AID 743267).
Setting [1] is: measured here: test 2 replicate run.
Where [2] appears, read: measured here: test 1 replicate run.

Under setting [1], `CC(=O)OCCn1c2nc(=O)[nH]c(=O)c-2nc2cc(C)c(C)cc21` yielded a concentration at half-maximal activity (AC50) of 15.3 µM. In other words, the double-digit micromolar range.

`O=C(NCCN1C(=O)S/C(=C\c2ccc(OC(F)F)cc2)C1=O)c1cnccn1`: under setting [1], the concentration at half-maximal activity (AC50) came out at 1.85 µM.

The compound `COC1C(C)OC(OC2CC(C)(O)Cc3cc4c(c(O)c32)C(=O)c2c(O)cc3c(c2C4=O)OC2OC3(C)C(O)C(N(C)C)C2O)C(OC)C1(C)OC` (centres undefined) gave a half-maximal activity concentration (AC50) under setting [1] of 14.3 µM.

Compound `O=c1c2ccccc2sc2c(CO)ccc(NCCN3CCCCC3)c12` returned a concentration at half-maximal activity (AC50) under setting [1] of 5.18 µM. Against the preceding compound, the AC50 is about 2.8-fold lower.

As for `COc1cccc(-c2cc3nc(-c4ccccc4)cc(=O)n3[nH]2)c1`, the AC50 under setting [1] worked out at 2.35 µM.

In turn, `CCCCn1c(CN2CCN(c3cccc(Cl)c3)CC2)nc2c1c(=O)[nH]c(=O)n2C` yielded an AC50 under setting [1] of 4.31 µM.

Compound `C=CC(C)(C)c1[nH]cnc1/C=C1\NC(=O)C(C(C)C)NC1=O` (centres undefined) displayed an AC50 under setting [1] of 40.2 µM. Against the preceding compound, the AC50 is about 9.3-fold higher.

In turn, `Cc1nc(C)c(C(=O)NN=Cc2ccc(N(CCCl)CCCl)cc2)s1` had a concentration at half-maximal activity (AC50) under setting [1] of more than 50 µM.

Consider `Cn1cccc1/C=C1\SC(=Nc2ccc(O)cc2)NC1=O`, for which, under setting [1], the concentration at half-maximal activity (AC50) worked out at 0.315 µM. This lies in the sub-micromolar range.

Regarding `COc1ccc(C2CN=NC23CCc2ccccc2C3=O)cc1` (centres undefined), under setting [1], the AC50 was found to be 38.9 µM. This AC50 is about 120-fold higher than that of the compound before.

As for `CCOc1ccccc1N1CCN(C(=O)c2cc3ccccc3cc2OC)CC1`, the AC50 under setting [1] worked out at 3.45 µM.

`COc1cccc(N=Nc2ccc3cccnc3c2O)c1`: the AC50 under setting [1] is more than 50 µM.

Under setting [1], `CCCC(=O)Nc1ccc2c(c1)nc(CN1CCN(C(=O)OCC)CC1)n2CC` showed a half-maximal activity concentration (AC50) of 8.58 µM.

With `COc1ccc(COc2cc(-c3cccc(OC)c3)nc3ccc(NC(=O)c4ccc(OC)cc4)cc23)cc1`, the concentration at half-maximal activity (AC50) under setting [1] is 1.89 µM.

Under setting [1], `CC1OC(OC2CC(O)C3(CO)C4C(O)CC5(C)C(C6=CC(=O)OC6)CCC5(O)C4CCC3(O)C2)C(O)C(O)C1O` (centres undefined) gave a concentration at half-maximal activity (AC50) of 3.38 µM.

`C[C@@H]1CN([C@H](C)CO)C(=O)c2cc(NS(=O)(=O)c3ccc(Cl)cc3)ccc2O[C@@H]1CN(C)Cc1ccc(-c2ccccc2)cc1` gave a half-maximal activity concentration (AC50) under setting [2] of 46.3 µM.

`Cc1ccc(C2(C)NC(=O)N(CC(=O)Nc3nc(-c4ccccn4)cs3)C2=O)cc1` (centres undefined) registered a half-maximal activity concentration (AC50) under setting [1] of 4.23 µM. In other words, the single-digit micromolar range.

Under setting [2], `N#C[C@@H]1[C@H](c2ccc(-c3cccc(F)c3)cc2)[C@H](CO)N1C(=O)NC1CCCC1` gave an AC50 of more than 50 µM.

In the case of `Cc1ccnc2c1ccc1cccnc12`, the AC50 under setting [1] was 18.3 µM.

The compound `CN1C(=O)c2cccc3c(N)ccc(c23)C1=O` came in with an AC50 under setting [1] of 18.3 µM.

Under setting [1], `COC(=O)c1cn(C(=O)c2ccc(C)cc2C)c2ccccc12` gave a concentration at half-maximal activity (AC50) of 7.53 µM.

Compound `Cc1ccc(N2C(=O)c3cccc4c([N+](=O)[O-])ccc(c34)C2=O)c2cccnc12` gave a half-maximal activity concentration (AC50) under setting [1] of 18.8 µM. This AC50 is about 2.5-fold higher than that of the compound before.

On to `CCc1cc(-c2nnn(CCC3COCCO3)c2CC)ccc1-c1cn(Cc2ccc3ccccc3c2)nn1` (centres undefined), for which the AC50 under setting [1] was 0.6 µM.

In the case of `Cc1cc(Cl)cc(C)c1OCCn1ccnc1`, under setting [1], the concentration at half-maximal activity (AC50) is 4.68 µM.

Consider `CO[C@@H](CN(C)S(=O)(=O)c1ccc(C)cc1)[C@H](C)CN([C@@H](C)CO)S(=O)(=O)c1cccc(Cl)c1`, for which the AC50 under setting [2] worked out at 5.49 µM.

As for `COCOc1cccc(CN2CCC2(C)C(=O)Nc2ccc(C)c(O)c2)c1` (centres undefined), the AC50 under setting [1] is more than 50 µM.

For the compound `CCOC(=O)CSC1=C(C#N)C(c2ccc(C)s2)CC(=O)N1` (centres undefined), the AC50 under setting [1] worked out at 5.6 µM. This lies in the single-digit micromolar range.

On to `COC(=O)c1ccc(C(=O)NC2CCCc3c2cnn3-c2ccc(C)c(C)c2)cc1` (centres undefined), for which the concentration at half-maximal activity (AC50) under setting [1] came to 1.02 µM. This AC50 is about 5.5-fold lower than that of the compound before.

Under setting [1], `Cc1ccc(COc2ccccc2-c2cc(C(=O)N/N=C/c3cccnc3)[nH]n2)cc1` displayed an AC50 of more than 50 µM.

Under setting [1], `COc1ccc(-c2csc(NC(=S)NC(=O)/C=C/c3ccco3)n2)cc1OC` came in with an AC50 of 2.19 µM.

Under setting [2], `COc1ccccc1S(=O)(=O)N1CC[C@@H]2[C@@H](CO)N(C)c3ccc(-c4ccc(F)cc4)cc3[C@@H]21` returned an AC50 of 15 µM.

Under setting [1], `CCc1ccc(N2CC(C(=O)Nc3ccccc3N3CCCC3)CC2=O)cc1` (centres undefined) yielded a concentration at half-maximal activity (AC50) of 28.7 µM.

With `Cn1c(CC(=O)NN)c(Sc2ccccc2)c2ccccc21`, under setting [1], the concentration at half-maximal activity (AC50) was more than 50 µM.

Consider `COc1ccccc1NC(=O)CSc1ccc(-c2ccccn2)nn1`, for which, under setting [1], the AC50 came to 20 µM.

On to `COc1ccc(C2=Nn3c(nnc3-c3ccccc3F)SC2)cc1OC1CCOC1` (centres undefined), for which the AC50 under setting [1] turned out to be 22.3 µM.

Turning to `O=C(C1CC1)N1CC(=O)N2[C@H](CO)[C@@H](c3ccc(-c4ccccc4F)cc3)[C@@H]2C1`, the AC50 under setting [2] turned out to be 8.99 µM.

With `COc1cccc(-c2cnc3c(NC(C)=O)cc(-c4cc(F)ccc4OC)cn23)c1`, the AC50 under setting [1] was 11.9 µM. This lies in the double-digit micromolar range.

Turning to `O=C(Cc1ccccc1)N1CC(=O)N2[C@H](CO)[C@@H](c3ccc(-c4ccccc4)cc3)[C@@H]2C1`, the AC50 under setting [2] is 24.6 µM.

Under setting [1], `CC(=O)c1cccc(Nc2c3c(nc4ccccc24)CCC3)c1` came in with an AC50 of 2.69 µM.

Regarding `O=C(NCCC1CCCCN1S(=O)(=O)c1cccs1)C(=O)Nc1ccc(F)cc1F` (centres undefined), the half-maximal activity concentration (AC50) under setting [1] turned out to be 8.39 µM.

As to `COc1cccc(-c2cccc(-c3nc(C(=O)NCC(F)(F)F)cc4c3[C@H](CCO)N([S@@](=O)C(C)(C)C)C4)c2)c1`, the concentration at half-maximal activity (AC50) under setting [2] came to 2.75 µM.

Compound `CCOC(=O)c1oc2ccc(S(=O)(=O)n3nc(-c4ccccc4)cc3N)cc2c1C` had an AC50 under setting [1] of 6.82 µM.

In turn, `CCN(c1cccc(C)c1)S(=O)(=O)c1ccc(-c2cc(C)no2)s1` came in with an AC50 under setting [1] of 5.94 µM. The AC50 values of the last two compounds are within 1.5-fold of each other.

For the compound `Cc1ccc(CNC(=O)c2ccc3c(=O)c(O)c(-c4ccc(C)cc4)[nH]c3c2)cc1`, under setting [1], the concentration at half-maximal activity (AC50) came out at 4.24 µM. This AC50 and that of the compound before are within 1.5-fold of each other.

Consider `CCC1=Nc2cc(C(=O)NCC3CCCO3)ccc2Sc2ccc(Cl)cc21` (centres undefined), for which, under setting [1], the AC50 turned out to be 7.26 µM.

For `COc1ccc(C(=O)c2ccc(N(C)C)cc2)c(OC)c1`, the concentration at half-maximal activity (AC50) under setting [1] amounted to 3.82 µM.

Regarding `CCOc1ccc(NC(=O)CN(c2ccc([N+](=O)[O-])cc2)S(=O)(=O)c2ccccc2)cc1`, the half-maximal activity concentration (AC50) under setting [1] was determined as 18.1 µM.

`CCOC1=C2CN(S(=O)(=O)c3ccc(C)cc3)CC[C@@H]2N(S(=O)(=O)c2ccc(C)cc2)[C@H](c2ccccc2)C1` registered an AC50 under setting [1] of 4.47 µM.

With `N#C/C(=C(/O)c1ccc(Br)s1)c1nc2ccccc2[nH]1`, the AC50 under setting [1] is 3.88 µM.

`CC(C)n1cc(/C=C/c2cc[n+](C)cc2)c2ccccc21` displayed a half-maximal activity concentration (AC50) under setting [1] of 27.2 µM.

In turn, `O=C1c2cccc3c(O)ccc(c23)C(=O)N1Cc1ccco1` had a concentration at half-maximal activity (AC50) under setting [1] of 13.3 µM.

`CCOC(=O)N1CCC(NC(=O)c2ccc3c(c2)N=C(C)c2c(C)ccc(C)c2S3)CC1` yielded an AC50 under setting [1] of 1.67 µM.

`CCN(Cc1ccccc1)c1ccc(/C=N/N=C(N)N)cc1`: under setting [1], the AC50 amounted to 4.74 µM. This AC50 lies about 2.8-fold higher than the previous one.

Regarding `CCCOCCOC(=O)c1[nH]c2c(c1C)C(=O)CC(c1cc(OC)ccc1OC)C2` (centres undefined), under setting [1], the AC50 stood at 3.69 µM.

In the case of `C[C@@H]1CN([C@@H](C)CO)C(=O)Cc2cc(N(C)C)ccc2O[C@@H]1CN(C)Cc1ccc(C(=O)Nc2ccccc2N)cc1`, the AC50 under setting [2] was found to be 10.3 µM. This counts as double-digit micromolar.

In the case of `CCOC(=O)c1sc(Nc2nc(C)cc(C)n2)nc1C`, under setting [1], the AC50 turned out to be 11.5 µM.

Under setting [1], `CCC(=O)NC(c1ccc(C)cc1)c1ccc2cccnc2c1O` (centres undefined) came in with a concentration at half-maximal activity (AC50) of more than 50 µM.

The compound `CCOC(=O)c1ccc(Nc2sc(C(=O)c3cccc([N+](=O)[O-])c3)c(N)c2C#N)cc1` showed a concentration at half-maximal activity (AC50) under setting [1] of 1.84 µM.

For the compound `COc1ccc(NC(=O)N(C)C[C@@H]2Oc3cc(C#CCC(C)C)ccc3S(=O)(=O)N([C@H](C)CO)C[C@@H]2C)cc1`, the AC50 under setting [2] turned out to be 16 µM.

`COc1cc(-c2cnc3c(NC=O)cc(-c4cccc(C(F)(F)F)c4)cn23)cc(OC)c1OC` gave an AC50 under setting [1] of 7.05 µM.

`CCOc1ccc2[nH]c(C(=O)N/N=C/c3ccc(OC)cc3)cc2c1`: the half-maximal activity concentration (AC50) under setting [1] amounted to 36.4 µM.

In the case of `CC(=O)N1CCc2cc(S(=O)(=O)N3c4ccccc4CC3C)ccc21` (centres undefined), the concentration at half-maximal activity (AC50) under setting [1] came to 6.73 µM.

Under setting [1], `COc1cccc(/C=N/NC(=O)C(=O)Nc2ccccc2OC(F)(F)C(F)F)c1O` gave a half-maximal activity concentration (AC50) of 9.39 µM.

Compound `CC(=O)Nc1ccc(Nc2c3ccccc3nc3ccccc23)cc1` gave an AC50 under setting [1] of 4.6 µM.
